Patent publication US20080105961A1, “Ligands of the Molecule Fit (Agt-121) and their Pharmaceutical Use” (priority 2004, published 2008)
Marks after values point to notes of the source that are not given here.

Tests used:
FIT mRNA [1] = experiment: ICV infusion of FIT antisense ODN in Psammomys obesus: food intake and body weight; type: in vivo
Experimental: To further investigate the orexigenic properties of FIT intracerebroventricular (ICV) antisense suppression of FIT was performed. This involved the infusion of FIT antisense oligonucleotides (ODNs) directly into the lateral ventricle space of the brain to suppress endogenous FIT mRNA levels. The effects of this treatment on food intake and body weight were measured and compared to control animals infused with a jumbled sequence ODN, or saline alone. 18 week old, male, lean, normal glucose tolerant (nGT) P. obesus animals were utilised for this study and infused with either saline, FIT antisense ODN, or jumbled ODN at 24 μg/day for four days. The sequence of the FIT antisense ODN was 5′-mu*mg*mg*mc*ma*g*a*a*t*t*g*c*a*mu*mu*mc*mc*mu*-3′, and the jumbled ODN 5′-mc*mg*mc*ma*mc*t*t*a*g*c*t*a*c*mu*mu*mg*mc*mu-3′, where m indicates the presence of a 2′O-Methyl-modified base, and * indicates a phosphorothioate linkage.

FIT mRNA [2] = experiment: ICV infusion of FIT antisense ODN in Sprague Dawley rats: food intake and body weight; type: in vivo
Experimental: To confirm the appetite-suppressing and weight-reducing effects of central FIT suppression in an animal model other than P. obesus, the inventors performed the same experiments in Sprague Dawley rats. Male, 12 week old Sprague Dawley rats were infused with either saline, FIT antisense ODN, or jumbled ODN at 24 μg/day for four days. The sequence of the FIT antisense ODN and the jumbled ODN are the same as in Example 2 above.

FIT mRNA [3] = experiment: Hypothalamic FIT gene expression by semi-quantitative RT-PCR in ICV antisense-treated rats; type: in vivo, Sprague Dawley rats; conditions: hypothalamus
Experimental: To confirm endogenous suppression of FIT in antisense-treated Sprague Dawley rats, FIT mRNA in the hypothalamus of these animals was measured.

FIT mRNA [4] = experiment: Pair-feeding study with indirect calorimetry (24 h): body weight, food intake, total energy expenditure; type: in vivo, Sprague Dawley rats
Experimental: To investigate the mechanism of weight loss after FIT antisense treatment, a group of Sprague Dawley rats were pair fed to the average daily food intake levels of FIT antisense-treated rats, and indirect calorimetry (24 h) was performed before and after FIT antisense or jumbled ODN ICV infusion.
Total energy expenditure (TEE) was calculated from measurements of oxygen consumption and carbon dioxide production using indirect calorimetry (Ferrannini, 1988). Due to differences in body weight between the three groups of rats, TEE levels were calculated relative to whole body mass of the animals. […] FIT antisense-treated rats therefore have an inappropriately high level of energy expenditure for their body weight.

FIT mRNA [5] = experiment: Metabolic heat production by indirect calorimetry (FIG. 1); type: in vivo, Sprague Dawley rats; conditions: Sprague Dawley rats, after three days of treatment
Excerpt: FIG. 1 is a graphical representation of metabolic heat production in Sprague Dawley rats after three days of FIT antisense-treatment compared to jumbled ad libitum fed and jumbled pair fed rats. *p<0.05 pair fed compared to jumbled group, #p<0.05 pair fed compared to FIT antisense-treated group, ̂p<0.05 compared to both jumbled and FIT antisense-treated groups. Data are mean ±SEM.
To further dissect the nature of the inability to reduce TEE levels after FIT antisense treatment, metabolic heat production was measured by indirect calorimetry.

melanocortin receptor = experiment: Feeding response to ICV injection of SHU9119 after three days of ODN or saline infusion; type: in vivo, Sprague Dawley rats
Excerpt: To further analyse the link between FIT and the melanocortin system, the feeding response of Sprague Dawley rats to an ICV injection of SHU9119, a melanocortin receptor antagonist and known feeding stimulator was investigated. After three days of FIT antisense treatment, jumbled oligonucleotide or saline infusion, responses were compared to rats receiving an ICV injection of saline vehicle rather than SHU9119.

MC4R = target: T1, MC4R (Rattus norvegicus, UniProt P70596); experiment: Feeding response to MT II after ODN or saline infusion; type: in vivo, Sprague Dawley rats; conditions: for Δ FI: 24 hr food intake post minus pre injection; for Δ FI / 24 hr FI post injection / 24 hr FI pre injection: mean ± SEM; for 24 hr FI post injection: food intake after MT II or vehicle injection; for 24 hr FI pre injection: food intake, during ICV infusion, before MT II or vehicle injection
T1 construct: from tissue; host or cells: living Sprague Dawley rats (brain)
Experimental: To further investigate this relationship, antisense suppression of FIT in Sprague Dawley rats was again performed and these animals' responses to administration of the α-MSH analog MT II, a synthetic agonist of the MC4R and known suppressor of feeding. MT II effects on food intake and body weight in saline and jumbled ODN-treated control rats, as well as in FIT antisense-treated rats was measured.

MC3R and MC4R = conditions: ICV infusion, mice (Murphy et al. 1998); cited from earlier work
FIT gene expression = FIT gene expression in the hypothalamus of monogenic mouse models of obesity; type: in vivo; conditions: leptin-treated ob/ob mice, mean ± SEM
Experimental: To investigate the molecular pathway via which FIT affect food intake, FIT gene expression was measured in the hypothalamus of several different monogenic mouse models of obesity. […] FIT gene expression was not altered in other genetic models of obesity such as leptin deficient ob/ob mice, MC3R knockout mice and MC4R knockout mice.

SH3GL2; endophilin 1 [6] = target: T2, SH3GL2; endophilin 1 (human, UniProt Q99962 1-352); experiment: yeast two-hybrid screen of a human brain cDNA library (14 clones)
T2 construct: Prey clone from a human brain cDNA library; not shown: not specified
Excerpt: (§1) The inventors utilised a yeast two-hybrid system which incorporates modifications by Chevray and Nathans (1992), and Vidal et al. (1996) to screen a human brain cDNA library.

SH3GL2; endophilin 1 [7] = target: T2, SH3GL2; endophilin 1; experiment: yeast two-hybrid screen of a human brain cDNA library (12 clones)
Excerpt: as §1

[8] = ICV 24 μg/day, day 1, mean ± SEM
[9] = ICV 24 μg/day, day 2, mean ± SEM
[10] = ICV 24 μg/day, day 3, mean ± SEM
[11] = ICV 24 μg/day, day 4, mean ± SEM
[12] = baseline body weight, mean ± SEM
[13] = change compared to day 0, mean ± SEM
[14] = not pair fed (jumbled group ad libitum fed), mean ± SEM

T1 sequence (P70596 whole entry, the tested form may be a part): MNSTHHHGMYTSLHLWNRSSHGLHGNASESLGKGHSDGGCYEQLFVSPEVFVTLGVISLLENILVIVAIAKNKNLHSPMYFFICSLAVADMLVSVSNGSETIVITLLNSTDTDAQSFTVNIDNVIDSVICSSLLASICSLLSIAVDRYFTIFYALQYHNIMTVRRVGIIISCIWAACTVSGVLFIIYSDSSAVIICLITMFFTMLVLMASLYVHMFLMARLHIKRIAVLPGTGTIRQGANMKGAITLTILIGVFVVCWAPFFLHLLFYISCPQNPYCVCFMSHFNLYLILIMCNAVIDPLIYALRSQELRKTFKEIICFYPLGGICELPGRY
T2 sequence (Q99962 whole entry): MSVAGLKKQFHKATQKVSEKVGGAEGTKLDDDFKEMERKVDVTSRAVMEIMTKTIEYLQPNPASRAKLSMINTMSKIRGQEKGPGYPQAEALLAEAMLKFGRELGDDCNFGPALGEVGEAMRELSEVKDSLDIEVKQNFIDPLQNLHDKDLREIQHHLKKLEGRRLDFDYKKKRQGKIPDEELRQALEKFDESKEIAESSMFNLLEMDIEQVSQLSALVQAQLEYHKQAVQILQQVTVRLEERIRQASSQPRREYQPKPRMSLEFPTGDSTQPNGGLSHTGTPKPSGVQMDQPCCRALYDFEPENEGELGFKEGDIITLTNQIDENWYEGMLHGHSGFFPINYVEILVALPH

For “5′-mu*mg*mg*mc*ma*g*a*a*t*t*g*c*a*mu*mu*mc*mc*mu*-3′ [FIT antisense]”, the “Cumulative food intake, Day 1 Food” value (FIT mRNA [1]; [8]) was 6.5 ± 1.6^a g, the “Cumulative food intake, Day 2 Food” value (FIT mRNA [1]; [9]) was 12.3 ± 2.9^a g and the “Cumulative food intake, Day 3 Food” value (FIT mRNA [1]; [10]) was 18.9 ± 3.9^a g. The “Cumulative food intake, Day 4 Food” value (FIT mRNA [1]; [11]) was 27.4 ± 4.4^a,b g, the “Day 1 BW” value (FIT mRNA [1]; ICV 24 μg/day, mean ± SEM) was 195 ± 7 g and the “Day 2 BW” value (FIT mRNA [1]; ICV 24 μg/day, mean ± SEM) was 194 ± 8 g. The “Day 3 BW” value (FIT mRNA [1]; ICV 24 μg/day, mean ± SEM) was 192 ± 7 g, the “Day 4 BW” value (FIT mRNA [1]; ICV 24 μg/day, mean ± SEM) was 190 ± 7 g and the “cumulative food intake compared to jumbled oligonucleotide-infused and saline-treated control animals” value (FIT mRNA [1]; ICV, after four days of treatment) was “significantly reduced”. For the same molecule, the “Day 0 BW” value (FIT mRNA [1]; [12]) was 199 ± 7 g, the “Day 1 ΔBW” value (FIT mRNA [1]; [13]) was −4.5 ± 0.7^a g and the “Day 2 ΔBW” value (FIT mRNA [1]; [13]) was −5.7 ± 2.1^a g. For the same molecule, the “Day 3 ΔBW” value (FIT mRNA [1]; [13]) was −7.7 ± 1.8^a g, the “Day 4 ΔBW” value (FIT mRNA [1]; [13]) was −9.2 ± 1.5^a,b g and the “Cumulative food intake, Day 1 Food” value (FIT mRNA [2]; [8]) was 8.6 ± 1.6^a,b g. For the same molecule, the “Cumulative food intake, Day 2 Food” value (FIT mRNA [2]; [9]) was 23.4 ± 2.6^a,b g, the “Cumulative food intake, Day 3 Food” value (FIT mRNA [2]; [10]) was 38.3 ± 3.6^a,b g and the “Cumulative food intake, Day 4 Food” value (FIT mRNA [2]; [11]) was 55.0 ± 4.9^a,b g. The “Day 1 BW” value (FIT mRNA [2]; ICV 24 μg/day, mean ± SEM) was 425 ± 37 g, the “Day 2 BW” value (FIT mRNA [2]; ICV 24 μg/day, mean ± SEM) was 415 ± 37 g and the “Day 3 BW” value (FIT mRNA [2]; ICV 24 μg/day, mean ± SEM) was 410 ± 38^a g. For the same molecule, the “Day 4 BW” value (FIT mRNA [2]; ICV 24 μg/day, mean ± SEM) was 408 ± 37^a g, the “Day 0 BW” value (FIT mRNA [2]; [12]) was 444 ± 37 g and the “Day 1 ΔBW” value (FIT mRNA [2]; [13]) was −19.6 ± 2.9^b g. For the same molecule, the “Day 2 ΔBW” value (FIT mRNA [2]; [13]) was −28.8 ± 4.1^a,b g, the “Day 3 ΔBW” value (FIT mRNA [2]; [13]) was −34.4 ± 4.1^a,b g and the “Day 4 ΔBW” value (FIT mRNA [2]; [13]) was −36.6 ± 6.7^a,b g. The FIT gene expression (FIT mRNA [3]; ICV-treated Sprague Dawley rats, mean ± SEM) was 6.6 ± 1.0^a arbitrary units, the “FIT gene expression suppressed compared to jumbled-treated rats” value (FIT mRNA [3]; Sprague Dawley rats) was 20% and the “FIT gene expression suppressed compared to saline-treated rats” value (FIT mRNA [3]; Sprague Dawley rats) was 37%. The “ability to reduce TEE levels” value (FIT mRNA [4]; Sprague Dawley rats, TEE relative to whole body mass) was “unable to significantly reduce”, the “Day 0 BW” value (FIT mRNA [4]; not pair fed (jumbled group ad libitum fed), baseline, mean ± SEM) was 408 ± 13 g and the “Day 4 BW” value (FIT mRNA [4]; [14]) was 338 ± 12^a,c g. For the same molecule, the “Food Intake” value (FIT mRNA [4]; [14]) was 36.4 ± 11.2^a g, the “Δ BW” value (FIT mRNA [4]; [14]) was −70.0 ± 8.6^a,b g and the “Δ TEE” value (FIT mRNA [4]; not pair fed, mean ± SEM) was -67 ± 25 kJ/day/kg. For the same molecule, the “Post TEE” value (FIT mRNA [4]; not pair fed, total energy expenditure after ICV infusion, mean ± SEM) was 525 ± 22 kJ/day/kg, the “Pre TEE” value (FIT mRNA [4]; not pair fed, total energy expenditure before ICV infusion, mean ± SEM) was 592 ± 30 kJ/day/kg and the metabolic heat production (FIT mRNA [5]) was “inability to reduce heat production”. The “Δ FI” value (melanocortin receptor; 48 hr food intake post minus pre injection, mean ± SEM) was 0.02 ± 0.01 g/g BW, the “48 hr FI post injection” value (melanocortin receptor; food intake relative to body weight, after ICV SHU9119 or vehicle injection, mean ± SEM) was 0.09 ± 0.01^b,d g/g BW and the “48 hr FI pre injection” value (melanocortin receptor; food intake relative to body weight, during ICV infusion, before SHU9119 or vehicle injection, mean ± SEM) was 0.07 ± 0.01^b g/g BW. The “feeding response after SHU9119 injection compared to jumbled-treated or saline-treated rats” value (melanocortin receptor; relative to body weight) was “significantly increased”, the “Δ FI” value (MC4R) was −0.01 ± 0.01^c g/g BW and the “24 hr FI post injection” value (MC4R) was 0.03 ± 0.01 g/g BW. The “24 hr FI pre injection” value (MC4R) was 0.04 ± 0.01^d g/g BW.

With MT II the “Δ FI” value (MC4R) was −0.04 ± 0.01 g/g BW, the “24 hr FI post injection” value (MC4R) was 0.03 ± 0.01^a g/g BW and the “24 hr FI pre injection” value (MC4R) was 0.07 ± 0.01 g/g BW. For the same molecule, the “inhibitory effect on food intake in rats pre-treated with FIT antisense ODN versus control groups” value (MC4R; not statistically significantly different from control groups) was “tended to have a greater inhibitory effect” and the “effect on food intake” value (MC3R and MC4R) was “decrease food intake”.

B1: Leptin: leptin given to leptin deficient ob/ob mice (protein, UniProt P41160 22-167, looked up)
Leptin: VPIQKVQDDTKTLIKTIVTRINDISHTQSVSAKQRVTGLDFIPGLHPILSLSKMDQTLAVYQQVLTSLPSQNVLQIANDLENLRDLLHLLAFSKSCSLPQTSGLQKPESLDGVLEASLYSTEVVALSRLQGSLQDILQQLDVSPEC
Work on B1 yielded an FIT gene expression (FIT gene expression) of 1.3 ± 0.3 arbitrary units.

B2: FIT-NP (FIT N-terminal plus proline-rich region), yeast two-hybrid bait (other, not shown: small tags and cut ends)
chain: MMEGLKKRTRKAFGIRKKEKDTDSTGSPDRDGMQPSPHELPYHSKAECAREGGKKASKKSNGAPNGFYAEIDWERYNSPELDEEGYSIRPEEPGSTKGKHFYSSSESEEEEESHKKFNIKIKPLQSKDILKNAATVDELKASIGNIALSPSPVRKSPRRSPGAIKRNLSSEEVARPRRSTPTPELTSKKPLDDTLALAPLFGPPLESAFDGHKTEVLLDQPEIWGSGQPVNPSMESPKLARPFPTGTPPPLPPKTVPATPPRTGSPLTVATGNDQAATEAKIEKPPSISDLDSIFGPVLSPKSVAVNTEETWVHFSDASPEHVTPELTPREKVVTPPAASDIPADSPTPGPPGPPGSAGPPGPPGPRNVPSPLNLEEVQKKVAEQTFIKDDYLETLSSPKECGLGQRETPPPPPPPTYRTVVSSPGPGSGSGTGTASGASSPARPATPLVPCSCSTPPPPPPRPPSRPKLPPGKPGVGDVSRPFSPPIHSSSPPPIAPL
notes: Truncated fragment of FIT used as bait in a yeast two-hybrid screen of a human brain cDNA library; also called AGT-121
B2: binds (SH3GL2; endophilin 1 [6]).

B3: FIT-PR (FIT proline-rich region), yeast two-hybrid bait (other, not shown: small tags and cut ends)
chain: RPFPTGTPPPLPPKTVPATPPRTGSPLTVATGNDQAATEAKIEKPPSISDLDSIFGPVLSPKSVAVNTEETWVHFSDASPEHVTPELTPREKVVTPPAASDIPADSPTPGPPGPPGSAGPPGPPGPRNVPSPLNLEEVQKKVAEQTFIKDDYLETLSSPKECGLGQRATPPPPPPPTYRTVVSSPGPGSGSGTGTASGASSPARPATPLVPCSCSTPPPPPPRPPSRPKLPPGKPGVGDVSRPFSPPIHSSSPPPIAPL
notes: as for B2
B3: binds (SH3GL2; endophilin 1 [7]).
